Patent US9463256B2, “Pretargeting kit, method and agents used therein” (KONINKLIJKE PHILIPS N.V., priority 2010, dated 2016)

Columns and labels:
LS174T tumor model [1] = assay: SPECT/CT imaging of tumor-bearing mice; format: in vivo
Description: (§1) LS174T tumor model. The human colon cancer cell line LS174T was obtained from the ATCC and maintained in Eagle's minimal essential medium (Sigma) supplemented with 10% heat inactivated fetal calf serum (Gibco), penicillin (100 U/mL), streptomycin (100 μg/mL) and 2 mM Glutamax. Nude female Balb/C mice (20-25 g body weight, Charles River Laboratories) were inoculated subcutaneously with 5×10^6 cells in 100 μL sterile PBS.
Tumor-bearing mice were injected with ^111In-tetrazine 28 (21 μg/75 μL per mouse, 20-50 MBq) 3 or 4 days after receiving 100 μg of a CC49-TCO construct without PEG10 spacer. Approximately 1 h later, the mice were anesthetized and positioned on an animal bed equipped with a nose cone for anesthesia and a sensor for respiratory monitoring. Single photon emission computed tomography (SPECT) was performed 2 h post tetrazine injection with a four-headed multi-pinhole small animal SPECT/CT imaging system (NanoSPECT, Bioscan Inc.). The SPECT acquisition (1 h total) was performed with 1.4 mm diameter pinholes and a 120-140 sec acquisition time per view (24 projections). The energy window for ^111In was set at 245 keV±15% and 171 keV±20%. Two-to-four days after the first scan, the mice were euthanized by anesthesia overdose and a second SPECT/CT scan was acquired overnight. Prior to each SPECT session a CT scan (2 sec per projection, 360 projections) was performed to obtain anatomical information on radioactivity distribution. After the acquisition, the data was reconstructed iteratively with the manufacturer's software (InVivoScope 1.39, patch 1). Regions of interest (ROIs) were drawn manually in triplicate for tumor, liver, kidney and thigh muscle. A phantom filled with a known amount of ^111In was used to calibrate the scanner for tissue radioactivity quantification. The image of three mice injected with CC49-TCO-O minor (CC49-20b), CC49-TCO-O major (CC49-20a) and CC49-TCO-C minor (CC49-14b) on a representative time scale are depicted in FIG. 13 A-C, respectively.
FIG. 13: (left) SPECT/CT projections of live mice 2 h after injection of ^111In-tetrazine 28 (21 μg/75 μL per mouse, ca. 40 MBq), 3-4 days after the administration of (A) CC49-TCO-O minor (CC49-20b), (B) CC49-TCO-O major (CC49-20a) or (C) CC49-TCO-C minor (CC49-14b) (100 μg/100 μL per mouse). (Right), post mortem SPECT/CT scans of the same mice 2-4 days after the first imaging session. White arrows indicate tumors.

LS174T tumor model [2] = assay: Biodistribution experiments in tumor bearing mice pretargeted with CC49-TCO constructs; format: in vivo, Nude female Balb/C mice; settings: 3 h after injection
Description: as §1
Dual isotope biodistribution experiments were performed by injecting tumor bearing mice (n=3) intravenously with ^125I-labeled CC49-TCO constructs with and without PEG10 spacer (100 μg/100 μL per mouse, ca. […] 0.8 MBq). Three hours after tetrazine administration, the animals were anesthetized with isoflurane and sacrificed by cervical dislocation. Blood was withdrawn by heart puncture and organs and tissues of interest were harvested, blotted dry and weighed. The radioactivity of the samples was measured in a γ-counter along with standards to determine the % ID/gram. The energy windows were set to 10-80 keV and 100-510 keV for ^125I and ^111In, respectively.

LS174T tumor model [3] = assay: Tumor targeting of CC49-TCO (20b) constructs; format: in vivo, Nude female Balb/C mice; settings: 3 h post-injection
Description: as §1
[…] The mice that received ^125I—CC49 were sacrificed 4 days post mAb injection. The mice that received ^125I—CC49-TCO 20b were injected with ^111In-DOTA-tetrazine 28 at 72 h post-mAb injection (25 eq. with respect to mAb, ca. 0.8 MBq) and were sacrificed 3 h after tetrazine injection. At the time of sacrifice, blood was collected by heart puncture and organs and tissues of interest were harvested, blotted dry, weighed and added with 1 mL PBS. The radioactivity in all samples was measured in a gamma-counter (Wizard 3, Perkin Elmer) with a dual-isotope protocol (energy windows set to 10-80 keV and 100-510 keV for ^125I and ^111In, respectively) along with standards to determine the percent injected dose per gram tissue (% ID/g).

[4] = 1 day pretargeting with CC49-14b
[5] = 1 day pretargeting with CC49-20a
[6] = 1 day pretargeting with CC49-20b
[7] = 3 days pretargeting with CC49-14b
[8] = 3 days pretargeting with CC49-20a
[9] = 3 days pretargeting with CC49-20b
[10] = mice pretreated with CC49-TCO(8.5) 72 h before
[11] = mice pretreated with CC49-TCO(12.7) 72 h before
[12] = mice pretreated with CC49-TCO(18.2) 72 h before

## O=C([O-])CN1CCN(CC(=O)[O-])CCN(CC(=O)NCCOCCOCCOCCOCCOCCOCCOCCOCCOCCOCCOCCNC(=O)CCCC(=O)Nc2ccc(-c3nnc(-c4ccccn4)nn3)nc2)CCN(CC(=O)[O-])CC1.[111In+3] [^111In-tetrazine 28]
LS174T tumor model [1]; 3 days after pre-treatment with CC49-TCO-O (both major and minor forms)
  ^111In-tetrazine uptake in tumor (SPECT/CT): high ^111In-tetrazine uptake in tumor
LS174T tumor model [1]; after the administration of CC49-TCO-C minor, 4 days delay between the two treatments
  radioactivity uptake (SPECT/CT): rather low radioactivity uptake
LS174T tumor model [1]; mice given CC49-TCO-C minor, 2 days after the early scan
  signal in the tumor at late scan (SPECT/CT): still present
LS174T tumor model [1]; mice pre-treated with CC49-TCO 0, 72-96 h after ^111In-tetrazine injection
  tumor radioactivity at late scan (SPECT/CT): still highly radioactive
LS174T tumor model [2]; [4]
  ^111In-tetrazine in Blood: 1.12 ± 0.09 % ID/gram
  ^111In-tetrazine in Bone: 0.27 ± 0.08 % ID/gram
  ^111In-tetrazine in Brain: 0.05 ± 0.01 % ID/gram
  ^111In-tetrazine in Heart: 0.46 ± 0.12 % ID/gram
  ^111In-tetrazine in Kidney: 3.12 ± 0.33 % ID/gram
  ^111In-tetrazine in Liver: 1.17 ± 0.35 % ID/gram
  ^111In-tetrazine in Lung: 0.79 ± 0.24 % ID/gram
  ^111In-tetrazine in Muscle: 0.22 ± 0.07 % ID/gram
  ^111In-tetrazine in Spleen: 0.53 ± 0.14 % ID/gram
  ^111In-tetrazine in Tumor: 2.59 ± 0.35 % ID/gram
LS174T tumor model [2]; [5]
  ^111In-tetrazine in Blood: 2.39 ± 1.77 % ID/gram
  ^111In-tetrazine in Bone: 0.33 ± 0.16 % ID/gram
  ^111In-tetrazine in Brain: 0.10 ± 0.06 % ID/gram
  ^111In-tetrazine in Heart: 0.84 ± 0.71 % ID/gram
  ^111In-tetrazine in Kidney: 2.84 ± 0.35 % ID/gram
  ^111In-tetrazine in Liver: 2.05 ± 1.03 % ID/gram
  ^111In-tetrazine in Lung: 1.13 ± 0.55 % ID/gram
  ^111In-tetrazine in Muscle: 0.33 ± 0.22 % ID/gram
  ^111In-tetrazine in Spleen: 0.83 ± 0.46 % ID/gram
  ^111In-tetrazine in Tumor: 2.40 ± 0.16 % ID/gram
LS174T tumor model [2]; [6]
  ^111In-tetrazine in Blood: 1.61 ± 0.45 % ID/gram
  ^111In-tetrazine in Bone: 0.40 ± 0.05 % ID/gram
  ^111In-tetrazine in Brain: 0.07 ± 0.01 % ID/gram
  ^111In-tetrazine in Heart: 0.50 ± 0.04 % ID/gram
  ^111In-tetrazine in Kidney: 3.39 ± 0.84 % ID/gram
  ^111In-tetrazine in Liver: 1.41 ± 0.45 % ID/gram
  ^111In-tetrazine in Lung: 0.97 ± 0.16 % ID/gram
  ^111In-tetrazine in Muscle: 0.24 ± 0.06 % ID/gram
  ^111In-tetrazine in Spleen: 0.65 ± 0.12 % ID/gram
  ^111In-tetrazine in Tumor: 3.42 ± 0.40 % ID/gram
LS174T tumor model [2]; [7]
  ^111In-tetrazine in Blood: 0.54 ± 0.11 % ID/gram
  ^111In-tetrazine in Bone: 0.20 ± 0.07 % ID/gram
  ^111In-tetrazine in Brain: 0.03 ± 0.01 % ID/gram
  ^111In-tetrazine in Heart: 0.24 ± 0.07 % ID/gram
  ^111In-tetrazine in Kidney: 2.82 ± 0.28 % ID/gram
  ^111In-tetrazine in Liver: 0.84 ± 0.21 % ID/gram
  ^111In-tetrazine in Lung: 0.50 ± 0.11 % ID/gram
  ^111In-tetrazine in Muscle: 0.16 ± 0.04 % ID/gram
  ^111In-tetrazine in Spleen: 0.34 ± 0.09 % ID/gram
  ^111In-tetrazine in Tumor: 2.76 ± 1.36 % ID/gram
LS174T tumor model [2]; [8]
  ^111In-tetrazine in Blood: 0.79 ± 0.39 % ID/gram
  ^111In-tetrazine in Bone: 0.15 ± 0.00 % ID/gram
  ^111In-tetrazine in Brain: 0.26 ± 0.11 % ID/gram
  ^111In-tetrazine in Heart: 0.30 ± 0.03 % ID/gram
  ^111In-tetrazine in Kidney: 3.16 ± 0.57 % ID/gram
  ^111In-tetrazine in Liver: 0.88 ± 0.13 % ID/gram
  ^111In-tetrazine in Lung: 0.58 ± 0.07 % ID/gram
  ^111In-tetrazine in Muscle: 0.21 ± 0.02 % ID/gram
  ^111In-tetrazine in Spleen: 0.43 ± 0.03 % ID/gram
  ^111In-tetrazine in Tumor: 3.11 ± 0.80 % ID/gram
LS174T tumor model [2]; [9]
  ^111In-tetrazine in Blood: 0.59 ± 0.10 % ID/gram
  ^111In-tetrazine in Bone: 0.16 ± 0.02 % ID/gram
  ^111In-tetrazine in Brain: 0.03 ± 0.01 % ID/gram
  ^111In-tetrazine in Heart: 0.22 ± 0.03 % ID/gram
  ^111In-tetrazine in Kidney: 2.59 ± 0.24 % ID/gram
  ^111In-tetrazine in Liver: 0.64 ± 0.06 % ID/gram
  ^111In-tetrazine in Lung: 0.46 ± 0.07 % ID/gram
  ^111In-tetrazine in Muscle: 0.18 ± 0.09 % ID/gram
  ^111In-tetrazine in Spleen: 0.35 ± 0.08 % ID/gram
  ^111In-tetrazine in Tumor: 2.56 ± 0.65 % ID/gram
LS174T tumor model [3]; [10]
  ^111In-tetrazine 28 in Blood: 0.45 ± 0.14 % ID/g
  ^111In-tetrazine 28 in Bone: 0.10 ± 0.03 % ID/g
  ^111In-tetrazine 28 in Brain: 0.02 ± 0.01 % ID/g
  ^111In-tetrazine 28 in Heart: 0.16 ± 0.03 % ID/g
  ^111In-tetrazine 28 in Kidney: 1.64 ± 0.28 % ID/g
  ^111In-tetrazine 28 in Liver: 0.44 ± 0.12 % ID/g
  ^111In-tetrazine 28 in Lung: 0.42 ± 0.06 % ID/g
  ^111In-tetrazine 28 in Muscle: 0.11 ± 0.05 % ID/g
  ^111In-tetrazine 28 in Spleen: 0.25 ± 0.05 % ID/g
  ^111In-tetrazine 28 in Tumor: 3.72 ± 1.45 % ID/g
LS174T tumor model [3]; [11]
  ^111In-tetrazine 28 in Blood: 0.37 ± 0.28 % ID/g
  ^111In-tetrazine 28 in Bone: 0.08 ± 0.02 % ID/g
  ^111In-tetrazine 28 in Brain: 0.01 ± 0.01 % ID/g
  ^111In-tetrazine 28 in Heart: 0.13 ± 0.05 % ID/g
  ^111In-tetrazine 28 in Kidney: 1.25 ± 0.24 % ID/g
  ^111In-tetrazine 28 in Liver: 0.29 ± 0.12 % ID/g
  ^111In-tetrazine 28 in Lung: 0.34 ± 0.10 % ID/g
  ^111In-tetrazine 28 in Muscle: 0.05 ± 0.00 % ID/g
  ^111In-tetrazine 28 in Spleen: 0.20 ± 0.06 % ID/g
  ^111In-tetrazine 28 in Tumor: 3.36 ± 1.69 % ID/g
LS174T tumor model [3]; [12]
  ^111In-tetrazine 28 in Blood: 0.12 ± 0.03 % ID/g
  ^111In-tetrazine 28 in Bone: 0.10 ± 0.02 % ID/g
  ^111In-tetrazine 28 in Brain: 0.04 ± 0.05 % ID/g
  ^111In-tetrazine 28 in Heart: 0.09 ± 0.03 % ID/g
  ^111In-tetrazine 28 in Kidney: 2.15 ± 0.17 % ID/g
  ^111In-tetrazine 28 in Liver: 0.26 ± 0.05 % ID/g
  ^111In-tetrazine 28 in Lung: 0.29 ± 0.01 % ID/g
  ^111In-tetrazine 28 in Muscle: 0.29 ± 0.43 % ID/g
  ^111In-tetrazine 28 in Spleen: 0.20 ± 0.02 % ID/g
  ^111In-tetrazine 28 in Tumor: 1.21 ± 0.22 % ID/g
